From US9540299B2, “MTOR-independent activator of TFEB for autophagy enhancement and uses thereof” (Hong Kong Baptist University, priority 2015, dated 2017)

Each molecule was assayed against T1, 3×Flag-TFEB (Homo sapiens, UniProt P19484) (assay: Nuclear translocation of Flag-TFEB in Hela cells stably expressing 3×Flag-TFEB (immunostaining, western blot)). Conditions: analogs 1 μM, curcumin 10 μM, 12 h, Torin 1 1 μM, 2 h.
T1 construct: expressed in transfected cells
T1 sequence (P19484 1-476): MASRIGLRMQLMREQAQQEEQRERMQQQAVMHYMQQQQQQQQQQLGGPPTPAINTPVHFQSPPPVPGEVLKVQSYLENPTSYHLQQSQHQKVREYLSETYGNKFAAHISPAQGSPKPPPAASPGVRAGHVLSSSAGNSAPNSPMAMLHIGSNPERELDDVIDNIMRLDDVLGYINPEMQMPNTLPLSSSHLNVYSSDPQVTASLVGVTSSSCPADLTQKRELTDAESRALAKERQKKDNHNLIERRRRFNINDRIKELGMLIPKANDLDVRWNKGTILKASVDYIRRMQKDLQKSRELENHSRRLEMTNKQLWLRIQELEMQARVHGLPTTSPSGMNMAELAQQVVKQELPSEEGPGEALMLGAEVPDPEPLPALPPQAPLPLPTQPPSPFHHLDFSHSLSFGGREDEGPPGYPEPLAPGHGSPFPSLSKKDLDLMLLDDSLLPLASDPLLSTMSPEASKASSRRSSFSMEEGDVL
Format: cell-based
Protocol: Cells were treated with curcumin (Cur, 10 μM), A2, B3 and C1 (1 μM) for 12 h. […] Data is quantified by ImageJ software and is presented as mean±SD of three replicates for each treatment conditions. At least 1000 cells are analyzed in each treatment group. *p<0.05 vs. the control (0.1% DMSO). FIG. 4C is a western blot showing the expression of endogenous TFEB. […] Data are presented as the mean±SD from three independent experiments. *p<0.05 vs. the control (0.1% DMSO). FIG. 4E is fluorescence images showing expression of 3×Flag-TFEB in Hela cells having treated with Cur (10 μM), A2, B3 and C1 (1 μM) for 12 h. Torin 1 (1 μM) treatment for 2 h is used as a positive control. Cells were fixed and stained with anti-Flag antibody. […] FIG. 4G is the western blot showing the expression of Flag-tagged TFEB in the cytosolic (Cyt.) and nuclear (Nuc.) fractions. ACTB and H3F3A (H3 histone, family 3A) are used as loading control of cytoplasmic and nuclear fraction, respectively. FIG. 4H is showing the relative intensity of TFEB in the cytosolic and nuclear fractions. Data are presented as the mean±SD from three independent experiments. *p<0.05 vs. the control (0.1% DMSO).
HeLa cells stably expressing 3×Flag-TFEB are treated with curcumin analogs E2, E3 and E4 (1 μM) for 12 hours. Torin 1 (1 μM) treatment for 2 hours is used as a positive control. Cells are fixed and stained with anti-Flag antibody (red) and DAPI (blue) (FIG. 18A). TFEB translocate into nucleus are quantified (FIG. 18B). Quantification data are presented as mean±SD of three replicates in a representative experiment. At least 500 cells are analyzed in each treatment group.
HeLa cells stably expressing 3×Flag-TFEB are treated with curcumin analogs E2, E3 and E4 (1 μM) for 12 hours. Torin 1 (1 μM) treatment for 2 hours is used as a positive control. The expression of TFEB in the cytosolic (Cyt.) and nuclear (Nuc.) fractions are determined by western blotting (FIG. 19A) and quantified (FIG. 19B). TUBB (β-tubulin) and H3F3A (H3 histone, family 3A) are used as loading control of cytoplasmic and nuclear fraction respectively. Quantification data are presented as the mean±SD from three independent experiments. *p<0.05 vs. the control (0.1% DMSO).
N2a, Hela and Hela cells stably expressing 3×-Flag-TFEB are cultured in DMEM supplemented with 10% FBS. SH-SY5Y cells are cultured in DMEM/F12 supplemented with 10% FBS. For drug treatment, the full medium is replaced by fresh Opti-MEM I and then the compounds (in 0.1% DMSO) are added to the cells and incubated for 12 h. Inducible PC12 cells overexpressing SNCA (WT and A53T) (a kind gift from Prof. David C. Rubinsztein at Cambridge University) are grown in DMEM supplemented with 10% horse serum, 5% FBS, 50 μg/ml G418, and 150 μg/ml hygromycin B at 37° C., 10% CO2. Cells are treated with 2 μg/ml doxycycline (Dox) for 24 h to induce SNCA expression. The full medium is changed to Opti-MEM I containing the testing compounds for another 48 h.
Cells are lysed on ice in 1× Lysis Buffer (9803, Life Technologies) with complete protease inhibitor mixture (04693124001, Roche Applied Science). Animal tissues are homogenized in nine volumes of ice-cold PBS supplemented with protease inhibitors. Cytosolic and nuclear fractions are isolated using protocols similar to those described previously. Anti-Flag or TFEB antibody is added to the whole cell lysates and Dynabeads® Protein G (10003D, Life Technologies) is used for immunoprecipitation. Proteins are separated by 10-15% SDS-PAGE, transferred, and blotted with the antibodies described. The blots are then incubated with secondary antibodies or the Clean-Blot IP Detection Reagent (21230, Thermo Scientific) at room temperature for 1 h. The protein signals are detected by ECL kit (32106, Pierce) and quantified using ImageJ software.
Cells are seeded on coverslips placed in 24-well plates. […]

| SMILES | nuclear translocation of Flag-TFEB |
| --- | --- |
| O=C(/C=C/c1cccc(C(F)(F)F)c1)/C=C/c1cccc(C(F)(F)F)c1 [A2, 1,5-bis(3-(trifluoromethyl)phenyl)penta-1,4-dien-3-one] | no effects |
| O=C(/C=C/c1ccc(O)cc1)/C=C/c1ccc(O)cc1 [B3, 1,5-bis(4-hydroxyphenyl)penta-1,4-dien-3-one] | no effects |
| COc1ccccc1/C=C/C(=O)/C=C/c1ccccc1OC [C1, 1,5-bis(2-methoxyphenyl)penta-1,4-dien-3-one] | significantly promotes |
| COc1cc(/C=C/C(=O)CC(=O)/C=C/c2ccc(O)c(OC)c2)ccc1O [curcumin, Curcumin, reference compound] | no effects |

More lines, now with the values ahead:

| nuclear translocation of Flag-TFEB | SMILES |
| --- | --- |
| significantly promote | O=C(/C=C/c1ccccc1Cl)/C=C/c1ccccc1Cl [E2] |
| significantly promote | O=C(/C=C/c1ccccc1Br)/C=C/c1ccccc1Br [E3] |
| significantly promote | O=C(/C=C/c1ccccc1I)/C=C/c1ccccc1I [E4] |
